Patent publication US8114859B2, “2-methylene-(20S,25S)-19,27-dinor-(22E)-vitamin D analogs” (Wisconsin Alumni Research Foundation, priority 2006, dated 2012)
Read-outs that look alike come from different tables or passages of the source.

Key:
[1] = Bone calcium mobilization (serum calcium) in vitamin D-deficient rats; format: in vivo, rat; settings: FIG. 4; for bone calcium mobilization: ip
Protocol: (§1) Male, weanling Sprague-Dawley rats were placed on Diet 11 (0.47% Ca) diet+AEK for one week followed by Diet 11 (0.02% Ca)+AEK for 3 weeks. The rats were then switched to a diet containing 0.47% Ca for one week followed by two weeks on a diet containing 0.02% Ca. Dose administration began during the last week on 0.02% calcium diet. Four consecutive ip doses were given approximately 24 hours apart. Twenty-four hours after the last dose, blood was collected from the severed neck and the concentration of serum calcium determined as a measure of bone calcium mobilization. The first 10 cm of the intestine was also collected for intestinal calcium transport analysis using the everted gut sac method.

[2] = test system: HL-60 cells; test: HL-60 differentiation (nitro blue tetrazolium reduction assay); format: cell-based, human; settings: FIG. 2; for EC50: read-out: EC50, HL-60 cell differentiation
Protocol: The study drugs were dissolved in ethanol and the concentrations determined using UV spectrophotometry. Serial dilutions were prepared so that a range of drug concentrations could be tested without changing the final concentration of ethanol (≦0.2%) present in the cell cultures.
Human promyelocytic leukemia (HL60) cells were grown in RPMI-1640 medium containing 10% fetal bovine serum. The cells were incubated at 37° C. in the presence of 5% CO2.
HL60 cells were plated at 1.2×10^5 cells/ml. Eighteen hours after plating, cells in duplicate were treated with drug. Four days later, the cells were harvested and a nitro blue tetrazolium reduction assay was performed (Collins et al., 1979; J. Exp. Med. 149:969-974). The percentage of differentiated cells was determined by counting a total of 200 cells and recording the number that contained intracellular black-blue formazan deposits. Verification of differentiation to monocytic cells was determined by measuring phagocytic activity (data not shown).

[3] = biological target: T1, full-length recombinant rat vitamin D receptor (Rattus norvegicus, UniProt P13053); test: Vitamin D receptor binding, competition with [3H]-1,25(OH)2D3; settings: FIG. 1
T1 construct: Full-length recombinant rat receptor was expressed in E. coli BL21 (DE3) Codon Plus RIL cells; His tag (C); made in house; host or cells: E. coli BL21 (DE3) Codon Plus RIL
T1 sequence (P13053 1-423): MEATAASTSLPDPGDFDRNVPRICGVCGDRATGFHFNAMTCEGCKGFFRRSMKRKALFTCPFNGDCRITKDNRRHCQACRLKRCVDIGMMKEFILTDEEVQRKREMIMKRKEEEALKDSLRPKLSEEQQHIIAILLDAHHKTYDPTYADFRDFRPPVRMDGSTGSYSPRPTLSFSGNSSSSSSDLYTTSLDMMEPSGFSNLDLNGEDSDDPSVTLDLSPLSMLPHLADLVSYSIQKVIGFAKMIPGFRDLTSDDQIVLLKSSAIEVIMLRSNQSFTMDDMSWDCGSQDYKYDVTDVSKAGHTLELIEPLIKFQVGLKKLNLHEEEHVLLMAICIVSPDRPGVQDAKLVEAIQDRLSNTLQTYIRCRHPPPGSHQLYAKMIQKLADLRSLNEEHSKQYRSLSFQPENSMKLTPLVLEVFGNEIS
Protocol: Full-length recombinant rat receptor was expressed in E. coli BL21 (DE3) Codon Plus RIL cells and purified to homogeneity using two different column chromatography systems. The first system was a nickel affinity resin that utilizes the C-terminal histidine tag on this protein. The protein that was eluted from this resin was further purified using ion exchange chromatography (S-Sepharose Fast Flow). Aliquots of the purified protein were quick frozen in liquid nitrogen and stored at −80° C. until use. For use in binding assays, the protein was diluted in TEDK50 (50 mM Tris, 1.5 mM EDTA, pH7.4, 5 mM DTT, 150 mM KCl) with 0.1% Chaps detergent. The receptor protein and ligand concentration were optimized such that no more than 20% of the added radiolabeled ligand was bound to the receptor.
Radiolabeled and unlabeled ligands were added to 100 mcl of the diluted protein at a final ethanol concentration of ≦10%, mixed and incubated overnight on ice to reach binding equilibrium. The following day, 100 mcl of hydroxylapatite slurry (50%) was added to each tube and mixed at 10-minute intervals for 30 minutes. The hydroxylapaptite was collected by centrifugation and then washed three times with Tris-EDTA buffer (50 mM Tris, 1.5 mM EDTA, pH 7.4) containing 0.5% Titron X-100. […] Total binding was determined from the tubes containing only radiolabeled ligand.

[4] = test system: 24-hydroxylase (24Ohase) gene promoter; test: In vitro transcription assay, luciferase reporter in ROS 17/2.8 (bone) cells; format: cell-based; settings: FIG. 3; for EC50: ROS 17/2.8 cells, read-out: EC50, transcriptional activity in bone cells
Protocol: Transcription activity was measured in ROS 17/2.8 (bone) cells that were stably transfected with a 24-hydroxylase (24Ohase) gene promoter upstream of a luciferase reporter gene (Arbour et al., 1998). Cells were given a range of doses. Sixteen hours after dosing the cells were harvested and luciferase activities were measured using a luminometer.
RLU=Relative Luciferase Units.

[5] = Intestinal calcium transport, everted gut sac method, in vitamin D-deficient rats; format: in vivo, rat; settings: FIG. 5; for intestinal calcium transport: everted gut sac
Protocol: as §1

Compound | bone calcium mobilization ([1]; 260 pmol/day for 4 consecutive days, rats on low calcium diet (0.02%)) | bone calcium mobilization ([1]; 7020 pmol/day, rats on low calcium diet (0.02%)) | bone calcium mobilization activity compared to 1,25(OH)2D3 ([1]; in words, overall) | EC50 ([2]; Homo sapiens, HL-60) [nM] | potency on HL-60 cell differentiation compared to 1,25(OH)2D3 ([2]; in words) | Ki ([3]; full-length recombinant rat VDR) [nM] | binding to the receptor compared to 1,25-(OH)2D3 ([3]; in words) | EC50 [4] [nM] | transcriptional activity in bone cells compared to 1α,25-dihydroxyvitamin D3 ([4]; in words) | intestinal calcium transport ([5]; 260 pmol/day) | intestinal calcium transport ([5]; 7020 pmol/day) | intestinal calcium transport activity compared to 1,25(OH)2D3 ([5]; in words, overall) | serum calcium levels ([1]; all dosages, rats on low calcium diet (0.02%)) | EC50 [2] [nM]
C=C1[C@H](O)CC(=C/C=C2\CCC[C@]3(C)[C@@H]([C@@H](C)/C=C/C[C@H](C)O)CC[C@@H]23)C[C@H]1O [SS-22, 2-methylene-(20S,25S)-19,27-dinor-(22E)-1α,25-dihydroxyvitamin D3] | did not result in mobilization of bone calcium | without any substantial effect | very little bone calcium mobilization activity | 1 | as potent as 1,25(OH)2D3 | 0.3 | bound equally to the receptor | 0.1 | about the same transcriptional activity | promotes intestinal calcium transport only slightly | significant intestinal calcium transport activity was recorded | very little activity | – | –
C=C1/C(=C\C=C2/CCC[C@]3(C)[C@@H]([C@H](C)CCCC(C)(C)O)CC[C@@H]23)C[C@@H](O)C[C@@H]1O [1,25(OH)2D3, 1α,25-dihydroxyvitamin D3, reference compound] | – | – | – | – | – | – | – | 0.2 | – | promotes a significant increase | – | – | increased serum calcium levels at all dosages | 2
